One test deals with MCF7. Briefly: Cytotoxicity against human MCF7 cells. It counts as functional, cell-based.
In a further test the test system is Plasmodium falciparum. Briefly: Antiplasmodial activity against chloroquine-resistant Plasmodium falciparum W2. The format is functional, organism-based.
For test [1], the system named is Mycobacterium tuberculosis. Briefly: Antibacterial activity against Mycobacterium tuberculosis H37Rv at 6.25 ug/ml. The format is functional.
In a further test the test system is NCI-H460. Briefly: Cytotoxicity against human NCI-H460 cells. It counts as functional, cell-based.
For a further test, the system named is CCRF-CEM. Briefly: Cytotoxicity against human CCRF-CEM cells. The format is functional, cell-based.
Another test has as its system T47D. Briefly: Cytotoxicity against human T47D cells. The format is functional, cell-based.

≈ marks a conversion by molar mass, not a printed value.

Drawing on ChEMBL document CHEMBL1151269, “Caucanolides A-F, unusual antiplasmodial constituents from a colombian collection of the gorgonian coral Pseudopterogorgia bipinnata” (J Nat Prod, 2005), this text covers IC50 and Activity for 6 molecules.

Broadly, the IC50 is the midpoint of a concentration-inhibition curve.

In the case of `C=C(C)[C@H]([C@@H]1C=C(CCC(C=O)=C(C)C)C(=O)O1)[C@@]1(OC)C=C(C)C(=O)O1` [CAUCANOLIDE A], the IC50 is 7.6 µg/mL (≈ 20.3 µM) in the test with MCF7; 17 µg/mL (≈ 45.4 µM) in the test on Plasmodium falciparum; 12.5 µg/mL (≈ 33.4 µM) in the test on NCI-H460; 25.5 µg/mL (≈ 68.1 µM) in the test with CCRF-CEM; 25.8 µg/mL (≈ 68.9 µM) in the test with T47D. This molecule also showed an Activity in test [1] of 21%.
`C=C(C)[C@H]([C@@H]1C=C(CCC(C(=O)/N=C/N(C)C)=C(C)C)C(=O)O1)[C@@]1(OC)C=C(C)C(=O)O1` [CAUCANOLIDE B] yielded an IC50 with Plasmodium falciparum of at least 50 µg/mL.
The same measure, in the same setting: to `CO[C@@]1([C@H]2[C@@H](O)C=C(CCC(C=O)=C(C)C)C(=O)OC2(C)C)C=C(C)C(=O)O1` [CAUCANOLIDE C] belongs at least 50 µg/mL.
In the test with Plasmodium falciparum, `CO[C@]1(/C=C(\C)C[C@@H]2C=C(CCC(C=O)=C(C)C)C(=O)O2)C=C(C)C(=O)O1` [CAUCANOLIDE D] yielded an IC50 of 15 µg/mL (≈ 40.1 µM).
Still for that read-out and setting: to `CO[C@@](C)(/C=C1/C=C(C)C(=O)O1)C[C@@H]1C=C(CCC(C=O)=C(C)C)C(=O)O1` [CAUCANOLIDE E] belongs at least 50 µg/mL; to `CO[C@](C)(/C=C1/C=C(C)C(=O)O1)C[C@@H]1C=C(CCC(C=O)=C(C)C)C(=O)O1` [CAUCANOLIDE F], at least 50 µg/mL.
